Laboratory results as given in patent US20080300235A1, “FXR Agonists for Reducing LOX-1 Expression” (Wyeth, priority 2007, published 2008).

How the values were obtained:
[1] = tested on: VCAM-1; test: Expression of LOX-1 target gene VCAM-1 (FIG. 2); type: in vivo, mouse
[2] = tested on: soluble LOX-1 (sLOX-1); test: Serum soluble LOX-1 (sLOX-1) by ELISA based assay in mouse strains; type: in vivo; conditions: FIG. 5B
Description: Moreover, the expression of soluble LOX-1 (sLOX-1) in the serum was also monitored using an ELISA based assay after Compound A treatment. […] (FIG. 5B).

[3] = tested on: LOX-1; test: Hepatic LOX-1 mRNA expression in LDLR-/- mice fed a western diet; type: in vivo, mouse; conditions: liver, LDLR-/- (LDLRKO) mice, western diet 7 days, increasing concentrations of compound, FIG. 1
Description: (§1) Since LOX-1 is regulated by oxLDL, LOX-1 mRNA expression was monitored in liver from LDLR−/− (LDLRKO) mice fed a western diet for 7 days.

[4] = tested on: CD36; test: Expression of oxLDL hepatic scavenger receptor CD36 (FIG. 3); type: in vivo, mouse; conditions: specificity control
Description: as §1
Importantly, the regulation of LOX-1 by FXR was specific, since expression of another oxLDL hepatic scavenger receptor, CD36, was not affected by compound A (FIG. 3).

[5] = tested on: VCAM-1; test: Hepatic VCAM-1 gene expression by real-time PCR in FXR KO or wildtype mice; type: in vivo, mouse; conditions: male FXR KO or wildtype mice, chow diet with 0.5% chenodeoxycholic acid (CA), 30 mpk orally daily 7 days, FIG. 6
Procedure: (§2) Male FXR deficient (FXR KO) or wildtype mice on a chow diet supplemented with 0.5% chenodeoxycholic acid (CA) were treated orally daily with 30 mpk of Compound A for 7 days, and hepatic gene expression of LOX-1 and VCAM-1 was determined by real-time PCR.

[6] = tested on: LOX-1; test: LOX-1 expression in liver and kidney of diabetic KKAy mice; type: in vivo, mouse
Procedure: To determine whether FXR agonists could block LOX-1 gene expression under other settings, the regulation of LOX-1 by FXR was studied in the diabetic mouse strain, KKAy. […] The renal regulation of LOX-1 was also determined since FXR is also expressed in the kidney.

[7] = tested on: LOX-1; test: Hepatic LOX-1 gene expression by real-time PCR in FXR KO or wildtype mice; type: in vivo, mouse; conditions: male FXR KO or wildtype mice, chow diet with 0.5% chenodeoxycholic acid (CA), 30 mpk orally daily 7 days, FIG. 6
Procedure: as §2

For `CC(C)OC(=O)C1=CN(C(=O)c2ccc(F)c(F)c2)CC(C)(C)c2c1[nH]c1ccccc21` [Compound A, isopropyl 3-(3,4-difluorobenzoyl)-1,1-dimethyl-1,2,3,6-tetrahydroazepino[4,5-b]indole-5-carboxylate], the “VCAM-1 (LOX-1 target gene) expression” value [1] was “significantly inhibited”, the “sLOX-1 reduction in FXR KO mouse strain” value ([2]; FXR KO mouse strain) was “dependent upon FXR” and the “serum sLOX-1” value ([2]; various mouse strains, high fat diet, 30 mpk orally daily for 7 days) was “significantly reduced”. The “LOX-1 mRNA induction by the western diet” value [3] was “dose dependently inhibited”, the CD36 expression [4] was “not affected” and the “inhibition of hepatic VCAM-1 gene expression, FXR KO vs wildtype” value [5] was “dependent upon FXR”. For the same compound, the “hepatic LOX-1 expression” value ([6]; chow diet, 7 days treatment, FIG. 4A) was “significant repression”, the “renal LOX-1 expression” value ([6]; kidney, FIG. 4B) was “significantly inhibited” and the “inhibition of hepatic LOX-1 gene expression, FXR KO vs wildtype” value [7] was “dependent upon FXR”.
